Assay results published in patent US20130096098A1, “Light Insensitive Silver(i) Cyanoximates As Antimicrobial Agents For Indwelling Medical Devices” (MISSOURI STATE UNIVERSITY, priority 2011, published 2013).
Where two headings read alike, the source gives them in different places.

What was measured:
[1] = system: inoculated microorganisms; test: Antibacterial tests in solid state: soaked dried filter paper disks on agar plates; assay type: cell-based; settings: deposited on filter papers from DMF 10 mg/mL, 20 μL; 37° C., 24 h
Text: (§1) Antimicrobial Activity Studies. Bacterial Strains and Growing Conditions. The strains of bacteria were obtained from Polish Collection of Microorganisms (PCM) of the Institute of Immunology and Experimental Therapy of Polish Academy of Sciences and were used throughout this study. Both Gram-negative and Gram-positive bacteria, as well as yeasts, commonly isolated from patients suffering implant-related infections, were chosen for experiments. They included Escherichia coli PCM 1144 (ATCC #10536), Klebsiella pneumoniae PCM 57, Proteus sp. PCM 542 (ATCC #13315), Pseudomonas aeruginosa PCM 2563 (ATCC #15442), Streptococcus mutans PCM 2502, Staphylococcus aureus PCM 2602 (ATCC #6538), Enterococcus hirae PCM 2559 (ATCC #10541), Mycobacterium fortuitum PCM 672, Candida albicans PCM 2566 (ATCC #10231). In addition, several multidrug-resistant bacterial strains isolated from patients with nosocomial infections K. pneumoniae 244, P. aeruginosa 2314, AMA, Enterococcus faecium VRE (vancomycin-resistant), Streptococcus pneumoniae PCI, S. aureus MRSA (methicillin-resistant), S. aureus MRSC (coagulase-negative methicillin-resistant), were also included in the in vitro testing. Bacteria were cultivated on sugar broth at 37° C. for 24 h in aerobic conditions, and prior to use in tests, cells were diluted with the same medium to obtain suspensions of about 2×10^5 cfu/mL.
Antibacterial Tests in Solid State: Soaked Dried Paper Disks and Pellets. Solutions (or suspensions if the compound was not completely solubilized) of studied Ag(I) cyanoximates in DMF at 10 mg/mL concentration were prepared and 20 μL of it was placed on filter paper discs (diameter 12 mm). These discs were dried for ˜2 h in the dark prior to testing where each filter was placed on agar plates with inoculated microorganisms, which were then incubated at 37° C. for 24 h. Thereafter, microorganisms' growth inhibition zone (if present) was measured (in mm).

[2] = system: Mycobacterium fortuitum; test: Antibacterial tests in solid state: pressed AgL pellets on agar plates; assay type: cell-based
Text: as §1
(§2) Also, Ag(I) cyanoximates were pressed into 12 mm in diameter pellets using a Carver 20 tons hydraulic press. The method of testing pellets was similar to the one described above. Solid pellets of AgL were carefully placed on agar plates with inoculated bacteria. The exposition time was 24 h at 37° C., after which inhibition zones were measured and results were documented by digital photography.

[3] = system: Pseudomonas aeruginosa; test: as above; assay type: cell-based
Text: as §1, §2

[4] = UV-light stability studies, low-pressure Hg lamp 254 nm; assay type: physicochemical
Protocol: Photophysical Measurements. Light sensitivity and stability of synthesized Ag(I) cyanoximates was studied at 296 K using a low-pressure Hg lamp with >85% output at λmax=254 nm where the intensity of light was measured with a UVX radiometer (UK). After 4 min warm-up time, this lamp generated a steady flux of UV-radiation that was equal to the dose of 10.13 J/cm^2 within 30 min. Prior to these investigations, complexes were thoroughly dried under high vacuum (<10^−4 Torr) and ground into a powder using an agate mortar. This made it easy to apply these compounds to paper, adhesive tape, or cardboard. Samples of complex were spread on white cardboard with an exposed circular area (via a mask) of ˜3 cm. The radiation source was positioned 1 cm from the sample. A pristine white silver chloride prepared in the dark was used as a control substance to access the light stability of silver(I) cyanoximates. Digital pictures of irradiated samples were taken every 30 min using a stationary digital camera (Kodak DX7630; 6.1 Mpx), and native images were cropped to square shape without any contrast or brightness editing using Samsung Digimax Viewer 2.0 software.

[5] = system: bacterial strains; test: Antibacterial tests in solutions, microplate Alamar Blue assay (MIC); assay type: cell-based; settings: stock in DMSO, 37° C., 48 h, tested infection agents
Text: Antimicrobial Activity Studies. Bacterial Strains and Growing Conditions. The strains of bacteria were obtained from Polish Collection of Microorganisms (PCM) of the Institute of Immunology and Experimental Therapy of Polish Academy of Sciences and were used throughout this study. Both Gram-negative and Gram-positive bacteria, as well as yeasts, commonly isolated from patients suffering implant-related infections, were chosen for experiments. They included Escherichia coli PCM 1144 (ATCC #10536), Klebsiella pneumoniae PCM 57, Proteus sp. PCM 542 (ATCC #13315), Pseudomonas aeruginosa PCM 2563 (ATCC #15442), Streptococcus mutans PCM 2502, Staphylococcus aureus PCM 2602 (ATCC #6538), Enterococcus hirae PCM 2559 (ATCC #10541), Mycobacterium fortuitum PCM 672, Candida albicans PCM 2566 (ATCC #10231). […]
Antibacterial Tests in Solutions. The antibacterial activities of synthesized Ag(I) cyanoximates were determined against bacterial strains by the microplate Alamar Blue assay. […] The fluorescence was measured using Victor^2 apparatus (Wallac, Perkin-Elmer), and the experiment was repeated three times. […] Means and standard error values were determined using the Microsoft Excel.

[6] = 12 mm pressed pellets, 24 h at 37° C., FIG. 10

Silver(I) Nitrosodicyanomethanide [Ag(CCO)]
effect on bacterial growth on solid media (inhibition zones) [1]: exhibit antimicrobial activity in the solid state | growth inhibition zone [2, 6]: clear inhibition zones | growth inhibition zone [3, 6]: clear inhibition zones | stability toward short wavelength UV-radiation ([4]; solid powders, 254 nm, 296 K, FIG. 8): resistance

N#CC(=N[O-])c1nc2ccccc2o1.[Ag+] [Ag(BOCO), 2-(Oximido)-2-benzoxazoleacetonitrile Silver(I)]
effect on bacterial growth on solid media (inhibition zones) [1]: exhibit antimicrobial activity in the solid state | growth inhibition zone [2, 6]: clear inhibition zones | growth inhibition zone [3, 6]: clear inhibition zones

Silver(I) α-Oximido-(2-pivaloyl)acetonitrile [Ag(PiCO)]
minimal inhibitory concentration (MIC), ranking [5]: lowest MIC value | effect on bacterial growth on solid media (inhibition zones) [1]: exhibit antimicrobial activity in the solid state

CCOC(=O)C(C#N)=N[O-].[Ag+] [Ag(ECO), Silver(I) α-Oximido-(ethylacetoxy)acetonitrile]
effect on bacterial growth on solid media (inhibition zones) [1]: exhibit antimicrobial activity in the solid state | growth inhibition zone [2, 6]: clear inhibition zones | growth inhibition zone [3, 6]: clear inhibition zones

Silver(I) α-Oximido-(acetamide)acetonitrile [Ag(ACO)]
stability toward short wavelength UV-radiation [4]: resistance

CN(C)C(=O)C(C#N)=N[O-].[Ag+] [Ag(DCO), Silver(I) α-Oximido-([N,N-dimethylamine]acetamide)acetonitrile]
minimal inhibitory concentration (MIC), ranking [5]: lowest MIC value | effect on bacterial growth on solid media (inhibition zones) [1]: exhibit antimicrobial activity in the solid state | growth inhibition zone [2]: clear inhibition zones | growth inhibition zone [3]: clear inhibition zones | stability toward short wavelength UV-radiation [4]: resistance

Cn1c(C(C#N)=N[O-])nc2ccccc21.[Ag+] [Ag(BIMCO), Silver(I) α-Oximido-(2-[N-methyl]benzoimidazolyl)acetonitrile]
effect on bacterial growth on solid media (inhibition zones) [1]: exhibit antimicrobial activity in the solid state

N#CC(=N[O-])C(=O)c1ccccc1.[Ag+] [Ag(BCO), Silver(I) α-Oximido-(2-benzoyl)acetonitrile]
effect on bacterial growth on solid media (inhibition zones) [1]: exhibit antimicrobial activity in the solid state

[Cl][Ag] [AgC1, silver chloride, reference compound]
stability toward short wavelength UV-radiation [4]: completely darken
